Results reported in patent US10077261B2, “Imidazolin-5-one derivative useful as FASN inhibitors for the treatment of cancer” (Janssen Pharmaceutica NV, priority 2012, dated 2018).

Tests used:
[1] = molecular target: T1, hFASN enzyme (full length) (Homo sapiens, UniProt P49327); assay: Fatty Acid Synthase (FASN) inhibition scintillation proximity assay; assay type: biochemical; details: for inhibition at 10 µM: read-out: Human FASN % inhibition @ 10 μM, 10 μM test compound; for IC50: read-out: Human FASN pIC50 (converted)
T1 construct: 10 μL hFASN enzyme (full length, 300 ng, purified in house); made in house
T1 sequence (P49327 whole entry): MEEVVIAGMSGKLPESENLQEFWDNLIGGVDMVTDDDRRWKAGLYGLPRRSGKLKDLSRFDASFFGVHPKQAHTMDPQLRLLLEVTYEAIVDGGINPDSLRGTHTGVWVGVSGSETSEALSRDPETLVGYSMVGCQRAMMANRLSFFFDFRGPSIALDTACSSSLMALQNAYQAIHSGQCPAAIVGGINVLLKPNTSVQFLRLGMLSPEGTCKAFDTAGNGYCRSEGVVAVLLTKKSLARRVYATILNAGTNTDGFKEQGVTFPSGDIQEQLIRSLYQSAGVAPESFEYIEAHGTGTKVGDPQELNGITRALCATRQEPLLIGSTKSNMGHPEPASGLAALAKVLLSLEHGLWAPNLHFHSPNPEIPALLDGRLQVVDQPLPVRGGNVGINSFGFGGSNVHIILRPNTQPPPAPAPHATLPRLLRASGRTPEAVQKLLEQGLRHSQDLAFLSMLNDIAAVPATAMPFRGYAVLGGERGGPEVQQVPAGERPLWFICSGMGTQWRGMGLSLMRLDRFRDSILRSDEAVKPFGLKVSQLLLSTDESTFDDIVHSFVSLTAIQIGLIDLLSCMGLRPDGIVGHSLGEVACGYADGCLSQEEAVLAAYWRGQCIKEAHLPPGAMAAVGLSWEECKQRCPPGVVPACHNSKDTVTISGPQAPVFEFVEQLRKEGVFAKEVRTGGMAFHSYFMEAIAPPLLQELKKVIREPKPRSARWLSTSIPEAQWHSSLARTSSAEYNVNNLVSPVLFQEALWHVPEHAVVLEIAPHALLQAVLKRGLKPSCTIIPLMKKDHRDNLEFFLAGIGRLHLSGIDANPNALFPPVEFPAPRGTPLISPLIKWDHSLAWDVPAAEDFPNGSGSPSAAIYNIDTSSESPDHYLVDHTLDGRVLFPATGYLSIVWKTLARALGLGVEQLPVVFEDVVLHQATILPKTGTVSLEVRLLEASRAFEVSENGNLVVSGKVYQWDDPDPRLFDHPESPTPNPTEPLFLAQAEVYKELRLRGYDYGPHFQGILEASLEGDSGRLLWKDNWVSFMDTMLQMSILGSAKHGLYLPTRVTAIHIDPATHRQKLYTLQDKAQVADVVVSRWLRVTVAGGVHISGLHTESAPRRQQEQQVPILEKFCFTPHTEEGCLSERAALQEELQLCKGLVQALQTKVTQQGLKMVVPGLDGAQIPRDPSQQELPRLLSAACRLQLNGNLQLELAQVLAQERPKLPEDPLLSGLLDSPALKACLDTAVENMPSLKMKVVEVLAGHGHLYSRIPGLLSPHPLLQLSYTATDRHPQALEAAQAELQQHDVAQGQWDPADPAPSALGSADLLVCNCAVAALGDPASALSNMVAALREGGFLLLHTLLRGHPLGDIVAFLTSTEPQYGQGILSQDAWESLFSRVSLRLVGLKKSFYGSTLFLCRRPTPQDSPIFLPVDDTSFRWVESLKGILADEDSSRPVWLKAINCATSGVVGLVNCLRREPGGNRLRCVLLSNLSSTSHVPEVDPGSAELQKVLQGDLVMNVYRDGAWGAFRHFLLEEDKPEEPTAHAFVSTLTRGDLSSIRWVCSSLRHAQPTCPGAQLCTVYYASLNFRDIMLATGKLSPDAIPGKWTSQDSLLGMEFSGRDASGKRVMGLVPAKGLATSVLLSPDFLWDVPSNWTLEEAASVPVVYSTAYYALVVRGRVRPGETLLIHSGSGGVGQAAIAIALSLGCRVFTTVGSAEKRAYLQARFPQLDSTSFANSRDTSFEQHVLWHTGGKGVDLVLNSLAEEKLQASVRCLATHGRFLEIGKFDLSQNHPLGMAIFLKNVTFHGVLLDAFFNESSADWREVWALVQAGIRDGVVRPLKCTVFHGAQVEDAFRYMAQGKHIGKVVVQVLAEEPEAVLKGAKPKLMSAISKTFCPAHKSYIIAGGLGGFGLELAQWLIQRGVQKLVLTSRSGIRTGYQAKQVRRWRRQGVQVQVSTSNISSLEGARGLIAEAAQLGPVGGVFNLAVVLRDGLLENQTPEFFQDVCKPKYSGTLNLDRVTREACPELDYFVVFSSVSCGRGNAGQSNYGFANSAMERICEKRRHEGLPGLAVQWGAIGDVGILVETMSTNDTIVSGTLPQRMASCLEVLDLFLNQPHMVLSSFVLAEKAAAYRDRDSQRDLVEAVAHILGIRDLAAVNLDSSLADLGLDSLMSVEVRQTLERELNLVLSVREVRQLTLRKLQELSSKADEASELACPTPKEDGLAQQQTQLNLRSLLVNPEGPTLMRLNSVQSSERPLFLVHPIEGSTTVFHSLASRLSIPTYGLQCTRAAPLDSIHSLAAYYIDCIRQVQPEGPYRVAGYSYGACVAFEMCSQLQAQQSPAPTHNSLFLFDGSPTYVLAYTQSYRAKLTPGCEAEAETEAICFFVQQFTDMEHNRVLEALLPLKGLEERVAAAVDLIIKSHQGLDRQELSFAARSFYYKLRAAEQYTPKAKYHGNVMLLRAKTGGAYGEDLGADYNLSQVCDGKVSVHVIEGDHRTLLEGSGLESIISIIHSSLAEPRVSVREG
Outline: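 Read-out relies on hydrophobic ³H-palmitate product, formed from ³H-acetyl-CoA and malonyl-CoA, binding streptavidin imaging beads, measured at 610±20 nm after at least 24 h. Full-length enzyme (300 ng) in phosphate buffer pH 7.5 with DTT; eight compound concentrations, 0.01–30 μM.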

A2780 ovarian cells [2] = assay: A2780 ovarian cell proliferation assay in lipid reduced medium, with palmitate (MTT); assay type: cell-based; details: Homo sapiens, A2780, 96 h; read-out: pIC50 A2780 Ovarian Cell, With Palmitate (converted)
Outline: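 In this palmitate-supplemented format, compound dilutions (30 μM down to 0.01 μM) are added to cells in lipid-reduced serum with 25 μM palmitate, 0.2% fatty-acid-free BSA and 0.25% ethanol. After four days (96 h) MTT absorbance at 544 nm is recorded and fitted by minimum sum of squares.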

A2780 ovarian cells [3] = assay: A2780 ovarian cell proliferation assay in lipid reduced medium, without palmitate (MTT); assay type: cell-based; details: Homo sapiens, A2780, 96 h; read-out: pIC50 A2780 Ovarian Cell, Without Palmitate (converted)
[4] = system: LNCaP-Vancouver prostate cells; assay: In vitro LNCaP Vancouver prostate cell proliferation assay in lipid reduced medium; assay type: cell-based; details: read-out: pIC50 LNCaP_Vancouver prostate cell (converted)
Description: LNCaP-Vancouver prostate cells were obtained from the Vancouver Prostate Cancer Centre. Cells were maintained in RPMI-1640, 10% Fetal Calf Serum (FCS, Hyclone), 2 mM glutamine and 50 μg/ml Gentamicin.
For the proliferation experiment 1500 LNCaP-Vancouver cells per well were seeded in a 384-well black with clear bottom plate (costar 3712BC) in 40 μl RPMI-1640, 10% Lipid reduced serum (LRS, Hyclone), 50 μg/ml Gentamicin and 2 mM Glutamine and incubated at 37° C., 5% CO2. The next day 10 μl of test compound/DMSO diluted in medium was added (3E-5M, 1E-5M, 3E-6M, 1E-6M, 3E-7M, 1E-7M, 3E-8M, 1E-8M final concentration). Compounds were tested in duplicate. After 96 h incubation at 37° C., 5% CO2 25 μl ATP-glow mix was added. The plate was incubated for 30 min at 37° C. and luminescence was measured with the Envision.
Analysis: Determination of pIC50 Values
pIC50 values were calculated as follows.
where mLC and mHC are the means of the low control wells and high control wells on the plate, after manual exclusion of outliers. The relation between the % Controlmin values and concentration was fitted to a 4-parameter logistic curve using a non-linear least squares regression method to determine the pIC50 value. Outlying data points were excluded manually to get a correct fit. The pIC50 corresponds to −log 10(IC50), if the IC50 is expressed in molar units (http://www.ncbi.nlm.nih.gov/books/NBK91994). The IC50 parameter was always determined by non-linear regression, but one or more of the other parameters may have been held fixed on a relevant input value, such as 0 for the bottom values.
For dose response curves with FASN inhibitors in LNCaP-Vancouver or PC-3M-Luc-C6 cells the curves bottom out around 30 to 40% of the control value. A standard fit PL2, forcing the lower bound to this level was used.
Representative compounds of the present invention were tested according to the procedure as described in Biological Example 4a and 4b above, with results as listed in Table 9, below.

[5] = molecular target: Fatty Acid Synthase Keto-reductase Domain (FASN KR) (Homo sapiens, UniProt P49327); assay: Fatty Acid Synthase keto-reductase domain (FASN KR) inhibition, NADPH oxidation at 340 nm
Sequence of Fatty Acid Synthase Keto-reductase Domain (FASN KR) (P49327 whole entry, the tested form may be a part): as the sequence (P49327 whole entry) above
Description: After 20 minutes incubation at room temperature the plate was measured again (T2).
The decrease in absorbance was calculated as (Absorbance before incubation T1)−(Absorbance following incubation T2).
A plot of Controlmin versus test compound concentration was fitted to a 4-parameter logistic curve using a non-linear least squares regression method.

| inhibition at 10 µM [1] [%] | IC50 [1] [nM] | IC50 (A2780 ovarian cells [2]) [µM] | IC50 (A2780 ovarian cells [3]) [nM] | IC50 [4] [nM] | IC50 [5] [nM] | SMILES |
| --- | --- | --- | --- | --- | --- | --- |
| 97 | 178 | > 10 | 162 | 2820 | 1450 | Cn1cc2cc(-c3ccc(C4=NC5(CC5)C(=O)N4CC4CN(C(=O)C5CC5)C4)c(F)c3)ccc2n1 [compound 644, 6-{[1-(Cyclopropylcarbonyl)azetidin-3-yl]methyl}-5-[2-fluoro-4-(2-methyl-2H-indazol-5-yl)phenyl]-4,6-diazaspiro[2.4]hept-4-en-7-one] |
| 97 | 186 | > 6.17 | 174 | 1200 | 347 | N#Cc1ccc2sc(-c3ccc(C4=NC5(CC5)C(=O)N4CC4CN(C(=O)C5CC5)C4)c(F)c3)nc2c1 [compound 652, 2-[4-(6-{[1-(Cyclopropylcarbonyl)azetidin-3-yl]methyl}-7-oxo-4,6-diazaspiro[2.4]hept-4-en-5-yl)-3-fluorophenyl]-1,3-benzothiazole-5-carbonitrile] |
| 97 | 155 | > 10 | ~1000 | 1780 | 339 | O=C(C1CC1)N1CC[C@@H](CN2C(=O)C3(CCOCC3)N=C2c2ccc(-c3ccc4occc4c3)cc2)C1 [compound 667, 2-[4-(1-Benzofuran-5-yl)phenyl]-3-{[(3R)-1-(cyclopropylcarbonyl)pyrrolidin-3-yl]methyl}-8-oxa-1,3-diazaspiro[4.5]dec-1-en-4-one] |
| 88 | 398 | > 10 | 513 | 5500 | 1050 | O=C([C@H]1CCCO1)N1CC(CN2C(=O)C3(CCOC3)N=C2c2ccc(-c3ccc4cccnc4c3)cc2)C1 (stereo partly drawn) [compound 716, 2-(4-Quinolin-7-ylphenyl)-3-({1-[(2R)-tetrahydro-furan-2-ylcarbonyl]azetidin-3-yl}methyl)-7-oxa-1,3-diazaspiro[4.4]non-1-en-4-one] |
| 98 | 115 | > 10 | ~214 | 851 | 251 | CC(C)N1CCC2(CC1)N=C(c1ccc(-c3ccc4[nH]ccc4c3)cc1)N(C[C@@H]1CCN(C(=O)C3CC3)C1)C2=O [compound 744, 3-{[(3R)-1-(Cyclopropylcarbonyl)pyrrolidin-3-yl]methyl}-2-[4-(1H-indol-5-yl)phenyl]-8-(1-methylethyl)-1,3,8-triazaspiro[4.5]dec-1-en-4-one] |
| 104 | 70.8 | > 10 | 95.5 | 851 | 158 | CS(=O)(=O)N1CCC2(CC1)N=C(c1ccc(-c3ccc4[nH]ccc4c3)cc1)N(C[C@@H]1CCN(C(=O)C3CC3)C1)C2=O [compound 745, 3-{[(3R)-1-(Cyclopropylcarbonyl)pyrrolidin-3-yl]methyl}-2-[4-(1H-indol-5-yl)phenyl]-8-(methylsulfonyl)-1,3,8-triazaspiro[4.5]dec-1-en-4-one] |
| 98 | 135 | > 10 | 89.1 | 724 | 166 | O=C(C1CC1)N1CC[C@@H](CN2C(=O)C3(CCN(C(=O)C(F)(F)F)CC3)N=C2c2ccc(-c3ccc4[nH]ccc4c3)cc2)C1 [compound 751, 3-{[(3R)-1-(Cyclopropylcarbonyl)pyrrolidin-3-yl]methyl}-2-[4-(1H-indol-5-yl)phenyl]-8-(trifluoroacetyl)-1,3,8-triazaspiro[4.5]dec-1-en-4-one] |

Continued, compound first:

| SMILES | inhibition at 10 µM [1] [%] | IC50 [1] [nM] | IC50 (A2780 ovarian cells [2]) [µM] | IC50 (A2780 ovarian cells [3]) [nM] | IC50 [4] [nM] | IC50 [5] [nM] |
| --- | --- | --- | --- | --- | --- | --- |
| Cn1nc(CO)c2cc(-c3ccc(C4=NC5(CC5)C(=O)N4CC4CN(C(=O)C5CC5)C4)cc3)ccc21 [compound 530, 6-{[1-(Cyclopropylcarbonyl)azetidin-3-yl]methyl}-5-{4-[3-(hydroxymethyl)-1-methyl-1H-indazol-5-yl]phenyl}-4,6-diazaspiro[2.4]hept-4-en-7-one] | 97 | 263 | > 10 | 776 | 5130 | 2950 |
| O=C(C1CC1)N1CC(CN2C(=O)C3(CC3)N=C2c2ccc(-c3ccc4cncnc4c3)cc2)C1 [compound 543, 6-{[1-(Cyclopropylcarbonyl)azetidin-3-yl]methyl}-5-(4-quinazolin-7-ylphenyl)-4,6-diazaspiro[2.4]hept-4-en-7-one] | 97 | 145 | > 10 | 141 | 2000 | 479 |
| Cn1ccc(-c2ccc(-c3ccc(C4=NC5(CC5)C(=O)N4CC4CN(C(=O)C5CC5)C4)c(F)c3)cc2)n1 [compound 547, 6-{[1-(Cyclopropylcarbonyl)azetidin-3-yl]methyl}-5-[3-fluoro-4′-(1-methyl-1H-pyrazol-3-yl)biphenyl-4-yl]-4,6-diazaspiro[2.4]hept-4-en-7-one] | 98 | 178 | 5.89 | ~174 | 1000 | 676 |
| Cc1cc2cc(-c3ccc(C4=NC5(CC5)C(=O)N4CC4CN(C(=O)C5CC5)C4)c(F)c3)ccc2s1 [compound 548, 6-{[1-(Cyclopropylcarbonyl)azetidin-3-yl]methyl}-5-[2-fluoro-4-(2-methyl-1-benzothiophen-5-yl)phenyl]-4,6-diazaspiro[2.4]hept-4-en-7-one] | 88 | 162 | 6.17 | ~295 | 1100 | 166 |
| COc1nn(C)c2ccc(-c3ccc(C4=NC5(CC5)C(=O)N4C[C@@H]4CCN(C(=O)C5CC5)C4)cc3)cc12 [compound 557, 6-{[(3R)-1-(Cyclopropylcarbonyl)pyrrolidin-3-yl]methyl}-5-[4-(3-methoxy-1-methyl-1H-indazol-5-yl)phenyl]-4,6-diazaspiro[2.4]hept-4-en-7-one] | 97 | 372 | 4.79 | 200 | 1380 | 427 |
| Cc1cc(-c2ccc(C#N)cc2F)ccc1C1=NC2(CC2)C(=O)N1CC1CN(C(=O)C2(C)CC2)C1 [compound 580] | 108 | 123 | > 10 | 56.2 | 759 | 603 |
| Cc1cc(-c2cccc(NC(=O)C3CC3)c2)ccc1C1=NC2(CC2)C(=O)N1C[C@@H]1CCN(C(=O)C2CC2)C1 [compound 614, N-[4′-(6-{[(3R)-1-(Cyclopropylcarbonyl)pyrrolidin-3-yl]methyl}-7-oxo-4,6-diazaspiro[2.4]hept-4-en-5-yl)-3′-methylbiphenyl-3-yl]cyclopropanecarboxamide] | 102 | 151 | > 10 | 170 | 1350 | 309 |
| Cc1cc(-c2cccc(SC3CC3)c2)ccc1C1=NC2(CC2)C(=O)N1C[C@@H]1CCN(C(=O)C2CC2)C1 [compound 642, 6-{[(3R)-1-(Cyclopropylcarbonyl)pyrrolidin-3-yl]methyl}-5-[3′-(cyclopropylsulfanyl)-3-methylbiphenyl-4-yl]-4,6-diazaspiro[2.4]hept-4-en-7-one] | 99 | 219 | > 10 | ~3800 | 6170 | 776 |
